Laboratory results as given in patent publication US9034862B2, “Compositions and methods for the treatment of cancer” (priority 2011, dated 2015).

Key:
5′-dGMP = conditions: 16 equiv 5′-dGMP, 37° C., PBS pH 7.4
Description: The 1-D ^1H NMR kinetic studies were performed in duplicate as a standard time-arrayed experiment using a variable delayed list. Incremented 1-D spectra were processed in exactly the same way and signals of aromatic amine ligands from platinum compounds were integrated. The relative concentrations of the platinum compound at each time point were calculated from peak integrals. […] Reactions of platinum compounds with 5′-dGMP were performed in NMR tubes containing 2 mM of the platinum compounds and 32 mM (16 equiv) of 5′-dGMP in 10 mM PBS buffer, D2O, pH*7.4 at 37° C.

human bone sarcoma U2OS = experiment: MTT assay, U2OS; type: cell-based
Description: (§1) Human colon carcinoma HT29, human breast carcinoma MCF7, human bone sarcoma U2OS, human prostate carcinoma PC3, and human cervix carcinoma HeLa cells were obtained from the ATCC. A2780/CP70 cisplatin-resistant human ovarian cancer cells were kindly provided by Dr. Stephen B. Howell (Moores UCSD Cancer Center) and the human lung carcinoma cell lines A549 and normal lung fibroblast MRC5 by David E. Root (Whitehead Institute for Biomedical Research). Cells were incubated at 37° C. in 5% CO2 and grown in RPMI (HT29, A2780/CP70, and PC3) or DMEM (A549, MRC5, HeLa, MCF7, and U2OS) medium supplemented with 10% fetal bovine serum and 1% penicillin/streptomycin. Cells were passed every 3 to 4 days and restarted from a frozen stock upon reaching pass number 20.
(§2) Solutions of the platinum compounds were freshly prepared in sterile PBS before use and their concentrations quantitated by atomic absorption spectroscopy. […] The cells were then treated with 20 μL of 3-(4,5-dimethylthiazol-2-yl)-2,5-diphenyltetrazolium bromide (MTT) (5 mg/mL in PBS) and incubated for 4 h. The medium was removed, 100 μL of DMSO was added to the cells, and the absorbance of the purple formazan was recorded at 560 nm using a BioTek Synergy HT multi-detection microplate plate reader. Each condition was performed in triplicate and three independent experiments were carried out for each cell line.

[1] = tested on: 60 different human cancer cell lines; experiment: NCI-60 DTP Human Tumor Cell Line Screen; conditions: single dose of 10 μM
[2] = tested on: GLuc expression in A549 cells; experiment: Transcription assay, globally platinated pGLuc, A549; type: cell-based, human; conditions: for transcription level (normalized against unplatinated plasmid): Pt/DNA ratio of […] for phenanthriplatin
Description: (§3) Transfection of transcription probes into A549 and HT29 cells with the pGLuc plasmid was carried out using liposomal transfecting agents. Determination of expression levels was tested by Luciferase assays monitored by a luminometer (J. Am. Chem. Soc. 2010, 132, 7429-7435). A549 cells were plated in 96-well plates at 2,000 cells/well and HT29 cells were plated in 96-well plates at 6,000 cells/well. After 48 h incubation (at ˜30% confluence), cells were transfected with 50 ng of platinated plasmids in 25 μL Opti-MEM and 0.125 μL Lipofectamine 2000, and subsequently 50 μL of antibiotics-free DMEM supplemented with 10% FBS. After 2 h, the cells were washed with medium and 100 μL of fresh medium was added. The experiment was carried out in quadruplicate.
(§4) GLuc activity was monitored using a luminescence plate reader (Synergy 2, BioTek, Winooski, Vt., USA). A 10 μL volume of medium at different time points (12, 24, 36, 48, 60 h) was transferred into opaque white 96-well plates, and 25 μL of GLuc assay solution (10 μM colelenterazine (NanoLight Technologies, Pinetop, Ariz., USA) in 2.5 mM acidified methanol (100 mM HCl), buffer (10 mM Tris-HCl pH 7.8, 1 mM EDTA, 0.6 M NaCl)) was added by the automatic injector of the instrument.
(§5) In another embodiment, A549 or HT29 cells were transfected using the platinated transcription probes, and transcription levels were investigated by determining GLuc expression as measured by […] following addition of coelenterazine as a substrate for the exported enzyme. The emission intensities were normalized against unplatinated plasmids as a control. Transcription profiles were obtained by plotting normalized levels of GLuc expression against platination levels (Pt/plasmid ratio) at five different time points. […] An increase in D0 value at different time points represents restoration of transcription.

[3] = tested on: Human colon carcinoma HT29; experiment: MTT assay, HT29; type: cell-based
Description: as §1, §2

[4] = tested on: GLuc expression in HT29 cells; experiment: Transcription assay, globally platinated pGLuc, HT29; type: cell-based, human
Description: as §3, §4, §5

IC50 (human bone sarcoma U2OS; Table 3, U2OS Bone, 72-h incubation): 590 ± 40 nM | IC50 (human bone sarcoma U2OS; Table 5, U2OS, 72-h incubation): 590 ± 40 nM | IC50 (human bone sarcoma U2OS; Table 14, U2OS, MTT assay): 1050 ± 20 nM | IC50 ([3]; Table 3, HT29 Colorectal, 72-h incubation): 2020 ± 40 nM | IC50 ([3]; Table 5, HT29, 72-h incubation): 2020 ± 40 nM | IC50 ([3]; Table 14, HT29, MTT assay): 2020 ± 40 nM
Substance: cis-[Pt(NH3)2(phenanthridine)Cl]NO3 [phenanthriplatin]
pseudo-first order rate constant, reaction with 5′-dGMP (5′-dGMP): 0.22 h⁻¹ | growth inhibition of the 60 cell lines [1]: significant growth inhibition | transcription level (normalized against unplatinated plasmid) ([2]; A549, 12 h): 19.5% | D0 (Pt lesions per plasmid required to reduce transcription levels to 37% of control) ([2]; A549, 12 h after transfection): 14.2 Pt/plasmid | D0 (Pt lesions per plasmid required to reduce transcription levels to 37% of control) ([2]; A549, 24 h after transfection): 17.3 Pt/plasmid | D0 (Pt lesions per plasmid required to reduce transcription levels to 37% of control) ([2]; A549, 36 h after transfection): 22.2 Pt/plasmid | D0 (Pt lesions per plasmid required to reduce transcription levels to 37% of control) ([2]; A549, 48 h after transfection): 31.6 Pt/plasmid | transcription level (normalized against unplatinated plasmid) ([2]; A549, 60 h): 51.1% | D0 (Pt lesions per plasmid required to reduce transcription levels to 37% of control) ([2]; A549, 60 h after transfection): 39.8 Pt/plasmid | D0 (Pt lesions per plasmid required to reduce transcription levels to 37% of control) ([4]; HT29, 12 h after transfection): 18.9 Pt/plasmid | D0 (Pt lesions per plasmid required to reduce transcription levels to 37% of control) ([4]; HT29, 48 h after transfection): 23.5 Pt/plasmid | transcription level (normalized against unplatinated plasmid) ([4]; HT29, 60 h, Pt/DNA ratio of […] for phenanthriplatin): 37.6% | D0 (Pt lesions per plasmid required to reduce transcription levels to 37% of control) ([4]; HT29, 60 h after transfection): 25.0 Pt/plasmid
